From patent publication US20240374573A1, “IMIDAZOLE CONTAINING COMPOUNDS, DERIVATIVES THEREFORE, AND USES THEREOF” (AglaeaPharma Inc., priority 2023, published 2024)
Each block holds one molecule with its values, some of them ahead of it.

Tests used:
[1] = target: T1, α2AAR (Homo sapiens, UniProt P08913); test: α2AAR binding assay ([3H]-RX 821002 radioligand); conditions: [3H]-RX 821002 0.5 nM, HEK293 membranes; read-out: α2A affinity (Ki)
T1 construct: host or cells: HEK293 (membranes)
T1 sequence (P08913 1-465): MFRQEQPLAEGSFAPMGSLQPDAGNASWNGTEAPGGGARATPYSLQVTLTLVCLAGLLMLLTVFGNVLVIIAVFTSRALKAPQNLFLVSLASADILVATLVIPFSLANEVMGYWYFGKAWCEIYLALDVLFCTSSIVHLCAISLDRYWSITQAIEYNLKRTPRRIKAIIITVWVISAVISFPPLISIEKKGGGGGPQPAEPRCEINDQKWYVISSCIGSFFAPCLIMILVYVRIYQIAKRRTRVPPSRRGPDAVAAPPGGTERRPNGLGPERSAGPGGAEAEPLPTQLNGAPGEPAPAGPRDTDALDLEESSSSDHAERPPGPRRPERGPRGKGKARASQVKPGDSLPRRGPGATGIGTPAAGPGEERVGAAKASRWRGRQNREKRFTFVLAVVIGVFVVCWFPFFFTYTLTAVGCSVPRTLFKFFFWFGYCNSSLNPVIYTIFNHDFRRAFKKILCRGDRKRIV

[2] = target: T2, α2AAR (α2A-adrenergic receptor) (Homo sapiens, UniProt P08913); test: α2AAR FLIPR assay (agonist activity); format: cell-based; conditions: FLIPR, α2AAR cell line hosted in HEK293 cells; read-out: α2A agonist activity (EC50)
T2 construct: expressed in transfected cells; host or cells: HEK293
T2 sequence (P08913 1-465): T1 sequence (P08913 1-465)
Experimental: This experimental protocol involved cell seeding and a FLIPR assay using the α2AAR (α2A-adrenergic receptor) cell line hosted in HEK293 cells. […] On Day 1, the cell seeding process started with the removal of the culture medium, followed by rinsing the cells with DPBS (21-031-CVC, Corning). […] The cells were detached, resuspended in growth media, and centrifuged at room temperature at 1000 rpm for 5 minutes. After discarding the supernatant, the cell pellet was resuspended in growth media to a concentration of 10× 10^5 cells per mL. This suspension was added to 384-well plates (19-Jul-38, Greiner) at 20 μL per well and incubated overnight at 37° C. in 5% CO2.
A 250 mM Probenecid solution was prepared in this buffer. The Fluo-4 Direct™ Loading Buffer was made by dissolving Fluo-4 Direct™ crystals (F10471, Invitrogen) in the FLIPR Assay Buffer and adding Probenecid. The buffer was then vortexed and allowed to stand for over 5 minutes, shielded from light. For the FLIPR procedure, testing compounds for agonist activite were serially diluted and transferred to a 384-well compound plate (25-Jan-39, Greiner). The cell plate was then treated with 2× Fluo-4 Direct™ loading buffer and incubated for 50 minutes at 37° C. in a 5% CO2 atmosphere, followed by 10 minutes at room temperature. Subsequently, the FLIPR assay buffer was added to the compound plate, which is then centrifuged.
The cell plate was analyzed in the FLIPR Tetra+ System for fluorescence signals. For the agonist test, reference compounds were added to the cell plates, and fluorescence was measured. The “Max-Min” calculation began from Read 1 to the maximum allowed. The data were analyzed using Prism software to calculate activation percentage for agonists and inhibition percentage for antagonists. The results were then fitted using specific models to determine EC50 for agonists.
The experimental protocol utilized various reagents and apparatus, including Penicillin/Streptomycin (100×) (SV30010, Hyclone), Poly-L-lysine hydrobromide (P1399, Sigma), and different types of 384-well plates such as the 384-Well PP 2.0 Microplate (PP-0200, LABCYTE) and 384 well Low Dead Volume Microplate (LP-0200, LABCYTE). The use of specific reference compounds like UK14304 was also integral to the assay.

SMILES: CC(=O)N1CCC(CC(=O)Nc2cccc(C(c3c[nH]cn3)c3cccc(C)c3C)c2)CC1 (stereo not drawn) [compound 102]
Ki [1]: 10 to 50 nM | EC50 [2]: 10 to 50 nM

SMILES: Cc1cccc(C(c2cccc(NC(=O)CC3CCS(=O)(=O)CC3)c2)c2c[nH]cn2)c1C (stereo not drawn) [compound 117]
Ki [1]: 10 to 50 nM | EC50 [2]: < 10 nM

SMILES: CCOP(=O)(OCC)c1cccc(C(c2c[nH]cn2)c2cccc(C)c2C)c1 (stereo not drawn) [compound 126]
Ki [1]: < 10 nM | EC50 [2]: 10 to 50 nM

SMILES: Cc1cccc(C(c2cccc(S(N)(=O)=O)c2)c2c[nH]cn2)c1C (stereo not drawn) [compound 133]
Ki [1]: 10 to 50 nM | EC50 [2]: 10 to 50 nM

SMILES: Cc1cccc(C(COCCNS(=O)(=O)CC2CCOCC2)c2c[nH]cn2)c1C (stereo not drawn) [compound 139]
Ki [1]: 10 to 50 nM | EC50 [2]: 10 to 50 nM

SMILES: Cc1cccc(C(c2cccc(NC(=O)CC[n+]3ccccc3)c2)c2c[nH]cn2)c1C (stereo not drawn) [compound 143]
Ki [1]: 10 to 50 nM | EC50 [2]: 50 to 250 nM

SMILES: CNC(=O)Nc1cccc(C(c2c[nH]cn2)c2cccc(C)c2C)n1 (stereo not drawn) [compound 146]
Ki [1]: 10 to 50 nM | EC50 [2]: 10 to 50 nM

SMILES: COCCC(=O)Nc1cccc(C(c2c[nH]cn2)c2cccc(C)c2C)c1 (stereo not drawn) [compound 147]
Ki [1]: 10 to 50 nM | EC50 [2]: 10 to 50 nM

SMILES: COCCCC(=O)Nc1cccc(C(c2c[nH]cn2)c2cccc(C)c2C)c1 (stereo not drawn) [compound 148]
Ki [1]: 10 to 50 nM | EC50 [2]: 10 to 50 nM

SMILES: Cc1cccc(C(c2cccc(NC(=O)C3CCOCC3)c2)c2c[nH]cn2)c1C (stereo not drawn) [compound 149]
Ki [1]: 10 to 50 nM | EC50 [2]: 10 to 50 nM

SMILES: Cc1cccc(C(c2cccc(NC(=O)CC3CCCO3)c2)c2c[nH]cn2)c1C (stereo not drawn) [compound 153]
Ki [1]: 10 to 50 nM | EC50 [2]: 10 to 50 nM

SMILES: Cc1cn(-c2cccc(C(c3c[nH]cn3)c3cccc(C)c3C)c2)nn1 (stereo not drawn) [compound 160]
Ki [1]: 10 to 50 nM | EC50 [2]: 10 to 50 nM

SMILES: Cc1cccc(C(c2cccc(-c3cnnn3C)c2)c2c[nH]cn2)c1C (stereo not drawn) [compound 164]
Ki [1]: 10 to 50 nM | EC50 [2]: 10 to 50 nM

SMILES: Cc1cccc(C(c2cccc(NS(=O)(=O)C[C@H]3CCCO3)c2)c2c[nH]cn2)c1C (stereo partly drawn) [compound 166]
Ki [1]: 10 to 50 nM | EC50 [2]: 10 to 50 nM

SMILES: COP(=O)(CC1CCOCC1)Nc1cccc(C(c2c[nH]cn2)c2cccc(C)c2C)c1 (stereo not drawn) [compound 167]
Ki [1]: 10 to 50 nM | EC50 [2]: 10 to 50 nM

SMILES: Cc1cccc(C(Cc2ccc(C(C)C(=O)O)cc2)c2c[nH]cn2)c1C (stereo not drawn) [compound 174]
Ki [1]: 50 to 250 nM | EC50 [2]: 10 to 50 nM

SMILES: Cc1cccc(C(Cc2ccc(C(=O)O)cc2)c2c[nH]cn2)c1C (stereo not drawn) [compound 175]
Ki [1]: 250 to 1000 nM | EC50 [2]: 10 to 50 nM

SMILES: Cc1cccc(C(Cc2ccc(C(=O)NC3CCOCC3)cc2)c2c[nH]cn2)c1C (stereo not drawn) [compound 177]
Ki [1]: 10 to 50 nM | EC50 [2]: < 10 nM

SMILES: Cc1cccc(C(c2cccc(NC(=O)N3CCCCC3)c2)c2c[nH]cn2)c1C (stereo not drawn) [compound 180]
Ki [1]: 10 to 50 nM | EC50 [2]: 10 to 50 nM

SMILES: Cc1cccc(C(Cc2ccc(C(=O)O)c(F)c2)c2c[nH]cn2)c1C (stereo not drawn) [compound 197]
Ki [1]: 50 to 250 nM | EC50 [2]: 10 to 50 nM

More lines, now with the values ahead:

Ki [1]: < 10 nM | EC50 [2]: 10 to 50 nM
SMILES: Cc1cccc(C(c2cccc(NC(=O)CC3CCCCO3)c2)c2c[nH]cn2)c1C (stereo not drawn) [compound 96]

Ki [1]: < 10 nM | EC50 [2]: 10 to 50 nM
SMILES: Cc1cccc(C(c2cccc(NC(=O)CC3CCCOC3)c2)c2c[nH]cn2)c1C (stereo not drawn) [compound 104]

Ki [1]: < 10 nM | EC50 [2]: 10 to 50 nM
SMILES: Cc1cccc(C(c2cccc(NS(=O)(=O)CC3CCOCC3)c2)c2c[nH]cn2)c1C (stereo not drawn) [compound 119]

Ki [1]: < 10 nM | EC50 [2]: < 10 nM
SMILES: Cc1cccc(C(c2cccc(NC(=O)CC3=CCOCC3)c2)c2c[nH]cn2)c1C (stereo not drawn) [compound 120]

Ki [1]: < 10 nM | EC50 [2]: 10 to 50 nM
SMILES: Cc1cccc(C(c2cccc(NC(=O)CN3CCC(O)CC3)c2)c2c[nH]cn2)c1C (stereo not drawn) [compound 123]

Ki [1]: < 10 nM | EC50 [2]: 10 to 50 nM
SMILES: Cc1cccc(C(c2c[nH]cn2)c2cccc(C(=O)NCC3CCOCC3)c2F)c1C (stereo not drawn) [compound 124]

Ki [1]: < 10 nM | EC50 [2]: 10 to 50 nM
SMILES: Cc1cccc(C(Cc2cccc(NS(=O)(=O)C3CCOCC3)c2)c2c[nH]cn2)c1C (stereo not drawn) [compound 134]

Ki [1]: < 10 nM | EC50 [2]: 10 to 50 nM
SMILES: Cc1cccc(C(c2cccc(C(=O)NOC3CCOCC3)c2)c2c[nH]cn2)c1C (stereo not drawn) [compound 145]

Ki [1]: < 10 nM | EC50 [2]: 10 to 50 nM
SMILES: Cc1cccc(C(c2c[nH]cn2)c2cccc(C(=O)NOC3CCOCC3)n2)c1C (stereo not drawn) [compound 152]

Ki [1]: < 10 nM | EC50 [2]: < 10 nM
SMILES: Cc1cccc(C(Cc2ccc(NC(=O)C3CCOCC3)cc2)c2c[nH]cn2)c1C (stereo not drawn) [compound 157]

Ki [1]: < 10 nM | EC50 [2]: 10 to 50 nM
SMILES: Cc1cccc(C(c2cccc(NC(=S)CC3CCOCC3)c2)c2c[nH]cn2)c1C (stereo not drawn) [compound 161]

Ki [1]: < 10 nM | EC50 [2]: 10 to 50 nM
SMILES: Cc1cccc(C(c2cccc(S(=O)(=O)NC3CCOCC3)c2)c2c[nH]cn2)c1C (stereo not drawn) [compound 162]

Ki [1]: < 10 nM | EC50 [2]: < 10 nM
SMILES: Cc1cccc(C(Cc2ccc(NC(=O)CC3CCCCO3)cc2)c2c[nH]cn2)c1C (stereo not drawn) [compound 169]

Ki [1]: < 10 nM | EC50 [2]: < 10 nM
SMILES: Cc1cccc(C(Cc2ccc(NC(=O)CC3CCOC3)cc2)c2c[nH]cn2)c1C (stereo not drawn) [compound 171]

Ki [1]: < 10 nM | EC50 [2]: < 10 nM
SMILES: Cc1cccc(C(Cc2ccc(NC(=O)CC3CCCO3)cc2)c2c[nH]cn2)c1C (stereo not drawn) [compound 176]

Ki [1]: < 10 nM | EC50 [2]: < 10 nM
SMILES: Cc1cccc(C(Cc2ccc(S(=O)(=O)NC3COC3)cc2)c2c[nH]cn2)c1C (stereo not drawn) [compound 179]

Ki [1]: < 10 nM | EC50 [2]: 50 to 250 nM
SMILES: Cc1cccc(C(Cc2ccc(NC(=O)CC3CCCCC3)cc2)c2c[nH]cn2)c1C (stereo not drawn) [compound 181]

Ki [1]: < 10 nM | EC50 [2]: 10 to 50 nM
SMILES: CNC(=O)c1ccc(CC(c2c[nH]cn2)c2cccc(C)c2C)cc1F (stereo not drawn) [compound 192]

Ki [1]: < 10 nM | EC50 [2]: 10 to 50 nM
SMILES: CC(=O)Nc1ccc(CC(c2c[nH]cn2)c2cccc(C)c2C)cc1F (stereo not drawn) [compound 193]

Ki [1]: < 10 nM | EC50 [2]: 10 to 50 nM
SMILES: COC(=O)Nc1ccc(CC(c2c[nH]cn2)c2cccc(C)c2C)cc1 (stereo not drawn) [compound 194]

Ki [1]: < 10 nM | EC50 [2]: 10 to 50 nM
SMILES: COCC(=O)Nc1ccc(CC(c2c[nH]cn2)c2cccc(C)c2C)cc1 (stereo not drawn) [compound 195]

Ki [1]: < 10 nM | EC50 [2]: 50 to 250 nM
SMILES: Cc1cccc(C(Cc2ccc3c(c2)OCCO3)c2c[nH]cn2)c1C (stereo not drawn) [compound 196]

Ki [1]: < 10 nM | EC50 [2]: 10 to 50 nM
SMILES: Cc1cccc(C(Cc2ccc(NC(=O)NC3CCOC3)cc2)c2c[nH]cn2)c1C (stereo not drawn) [compound 198]

Ki [1]: < 10 nM | EC50 [2]: 10 to 50 nM
SMILES: Cc1cccc(C(c2c[nH]cn2)c2cccc(-c3cnnn3C)c2F)c1C (stereo not drawn) [compound 201]

Ki [1]: < 10 nM | EC50 [2]: 50 to 250 nM
SMILES: CNc1ccc(CC(c2c[nH]cn2)c2cccc(C)c2C)cc1 (stereo not drawn) [compound 203]
